Test results taken from patent US11881606B2, “Conductive materials to drive bacterial carbon dioxide fixation” (The Government of the United States of America, as …, priority 2019, dated 2024).
“And” between values parts separate entries of the source, which are not always exact repeats. Equal values may be shown once.

Assays:
[1] = system: Biocathode MCL; assay: Effect of antibiotics and cyanide on the open circuit potential (OCP) of electrodes with Biocathode MCL biofilm; assay type: cell-based
Method: FIGS. 3A and 3B illustrate the effect of the addition of antibiotics on the open circuit potential (OCP). […]
(§1) Biocathode MCL was cultivated in artificial seawater (ASW) medium containing 27.50 g NaCl, 3.80 g MgCl2·6H2O, 6.78 g MgSO4·H2O, 0.72 g KCl, 0.62 g NaHCO3, 5.58 g CaCl2·H2O, 1.00 g NH4Cl, 0.05 g K2HPO4, and 1 ml Wolfe's Trace Mineral Solution per liter. The NaHCO3 was autoclaved in a separate sealed bottle and added after cooling to avoid precipitation. The medium was adjusted to a pH between 6.5 and 6.8 by briefly bubbling with 100% CO2. Source cultures were continuously maintained in 2 liter, 3-electrode reactors with carbon cloth as working and counter electrodes. The working electrode was poised at 0.310 V SHE (standard hydrogen electrode).
(§2) For these experiments, bioelectrochemical systems (BES) were 175 ml glass electrochemical reactors (Pine Instruments, Grove City, Pa.). Working electrodes were either 10.5 cm^2 graphite flags (Tri-Gemini, Hillside, Ill.) or carbon cloth (Fuel Cell Earth, Woburn, Mass.) cut to roughly 3.5×1.5 cm for an area of 10.5 cm^2. Counter electrodes were carbon cloth electrodes cut to approximately 3.5×1.5 cm. Graphite flags were sanded down prior to cleaning. Both carbon cloth and graphite flag electrodes were soaked overnight in 1 M hydrochloric acid, then rinsed and soaked overnight in ultrapure deionized water (MilliQ, Millipore-Sigma, Burlington, Mass.). Electrodes were suspended in the reactors from titanium wires, attached by titanium screws. The reference electrodes for the experiments were 3 M KCl Ag/AgCl (BASI, West Lafayette, Ind.) washed in bleach and rinsed in sterile ultrapure deionized water. All potentials are reported here as vs. SHE by adding 0.21V to the experimental potentials vs. Ag/AgCl.
Once assembled, the BES were maintained at 30° C. using water jackets and stirred using small stir bars and stir plates (VWR, Radnor, Pa., USA). The electrodes were connected to a multichannel potentiostat (Biologic, Seyssinet-Pariset, France), which was used to record cyclic voltammograms at fast (20 mV/S) and slow (0.2 mV/S) scan rates, and then to monitor the OCP or, for experiments with set potential, to hold the potential at 0.310 V and monitor current production. After the signal stabilized, the reactors were inoculated with 1 ml of initial inoculum diluted 10^−3 or 10^−4-fold. Based on the cell counts of filtered inoculum, reactors in experiment 1 were inoculated with ca. 30 or ca. 300 cells, while reactors in experiment 2 were inoculated with ca. 110 or ca. 1100 cells and reactors in experiment 3 were inoculated with 700 cells.
The effect of antibiotics on the open circuit potential was examined in order to determine whether the maintenance of the OCP was dependent on metabolically active cells. Because ampicillin kills only dividing cells (by interfering with cell wall formation^21), while kanamycin kills by interfering with translation machinery (killing bacteria that are actively manufacturing proteins^21), these antibiotics were used to determine the rough metabolic state of the cells.
To test how long the cells remained active and sensitive to antibiotics, reactors were incubated for 26 days before antibiotic additions. The inoculated reactors maintained an OCP close to 0.50 V vs. SHE during the 26-day incubation. […] Cyanide, which inhibits cytochrome function, caused an immediate drop in potential in both old and young reactors (FIGS. 3A and 3B).

[2] = system: Biocathode MCL; assay: Current production by Biocathode MCL on electrode set at 0.310 V with antibiotics; assay type: cell-based; details: ampicillin at 100 μg/ml; electrode potential set at 0.310 V
Method: as §1
as §2, with “The reference electrodes for the experiments were 3 M KCl Ag/AgCl (BASI, West Lafayette, Ind.) washed in bleach and rinsed in sterile ultrapure deionized water. All potentials are reported here as vs. SHE by adding 0.21V to the experimental potentials vs. Ag/AgCl.” left out

[3] = added 10 days after inoculation

Row | SMILES | Time until drop in OCP began ([1]; added 10 days after inoculation, two experiments) | Current production [2] | OCP at end of drop [1, 3] | Time until OCP began dropping [1, 3] [days] | Time until OCP reduction began ([1]; added 26 days after inoculation) | Effect on OCP ([1]; added 26 days after inoculation, followed for two weeks)
1 | NC[C@H]1O[C@H](O[C@H]2[C@H](O)[C@@H](O[C@H]3O[C@H](CO)[C@@H](O)[C@H](N)[C@H]3O)[C@H](N)C[C@@H]2N)[C@H](O)[C@@H](O)[C@@H]1O [kanamycin] | 13 h and 10 h | – | – | – | – | –
2 | CC1(C)S[C@@H]2[C@H](NC(=O)[C@H](N)c3ccccc3)C(=O)N2[C@H]1C(=O)O [ampicillin] | – | inhibited | return to its pre-inoculation level | 2 to 3 | two | not returning to the abiotic OCP even after two weeks
